From PubChem BioAssay AID179 (DTP/NCI, 2004)
Calls of active or inactive are those of the source.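 Rule for the calls: active = compounds giving half or more protection of infected cells from virus-caused growth loss, again on retest; inactive = the rest.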 Where a SMILES comes first, the peptide text is derived from it. [ ]: non-standard residue; d: D form. The star is where a group is joined. X10 = CC(C)CN(C[C@@H](O)[C@H](Cc1ccc(OCC(=O)*)cc1)NC(=O)O[C@H]1CCOC1)S(=O)(=O)c1ccc(N)cc1; NMeLeu(3R-OH) = CN[C@H](C(=O)O)[C@H](O)C(C)C; NMeL = CN[C@@H](CC(C)C)C(=O)O; NMeV = CN[C@H](C(=O)O)C(C)C; dNMeS = CN[C@H](CO)C(=O)O; Abu = CC[C@H](N)C(=O)O

System: CEM cells HIV-1 protection, formazan growth assay
Test: NCI AIDS Antiviral Assay
Details: for IC50: measured here: growth of uninfected CEM cells
Method in brief: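 Soluble formazan readout of cell growth; CEM cells ± HIV-1; 5 drug concs. ≥50% protection → retest; ≥50% again = moderately active; reproducible 100% = confirmed active.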

Row | Structure (SMILES) | EC50 | IC50 | outcome
1 | Cc1cc2c(cc1C)N1C(Cl)=C3CCCCC3=C(C#N)C1N2 (configuration not stated) | > 20 µM | 0.562 µM | 
2 | Cc1[nH]c2cc([N+](=O)[O-])ccc2c1[N+](=O)[O-] |  |  | inactive
3 | NC(CSS(=O)(=O)O)=NC1CC1 | > 200 µM | > 200 µM | 
4 | Clc1ncc(Cl)c(Cl)n1 |  |  | inactive
5 | O=[N+]([O-])c1cc(/C=N/NS(=O)(=O)c2ccc(F)cc2)c(O)c([N+](=O)[O-])c1 | > 646 µM | 37.2 µM | 
6 | CC(C)(C)OC(=O)/C=C/C(=O)O/C=C/[N+](=O)[O-] | > 200 µM | > 200 µM | 
7 | O=Nc1ccc(Br)cc1 |  |  | inactive
8 | C[Si](C)(C)/C(Br)=C\CCN1C(=O)CCC1=O |  |  | inactive
9 | O=C1Oc2ccccc2CC1C(=O)c1ccc([N+](=O)[O-])cc1 (configuration not stated) | > 63.1 µM | 52.5 µM | 
10 | Cc1ncc(CO)c(CO)c1S | > 200 µM | > 200 µM | 
11 | Cc1c(N(Cc2ccccc2)Cc2ccccc2)nc(S(C)(=O)=O)nc1S(C)(=O)=O |  |  | inactive
12 | CCSc1[nH]c(NC(=NC(C)C)NC(=O)c2ccccc2)c(C(N)=O)c1C(N)=O |  |  | inactive
13 | Cc1ccc(NC(=O)C(=O)C(C#N)c2nc(-c3ccc(-c4ccccc4)cc3)cs2)c(C)c1 (configuration not stated) | > 66.1 µM | > 66.1 µM | 
14 | c1cnc(SCc2nc3ccccc3o2)nc1 | 38 µM | > 200 µM | 
15 | CC(C)Cc1cccc(C(C)C)c1NC(=O)CCC(=O)N/N=C1\C(=N/NC(=O)CCC(=O)Nc2c(C(C)C)cccc2C(C)C)C(c2ccc3c(c2)OCO3)Oc2ccccc21 (configuration not stated) | > 112 µM | 81.3 µM | 
16 | CC(=O)NC1=NC(=O)/C(=C/c2ccc3c(c2)OCO3)N1C | > 200 µM | > 200 µM | 
17 | O=C(Nc1ccccc1C(=O)NCCCO)/C(=C/c1ccccc1O)NC(=O)c1ccccc1 | > 200 µM | > 200 µM | 
18 | CCOC(=O)c1c(C)[nH]c(C(=O)C(N=O)C(=O)OCC)c1C (configuration not stated) | > 200 µM | > 200 µM | 
19 | O=C(Nc1ccn(C2CC(I)C(COC(c3ccccc3)(c3ccccc3)c3ccccc3)O2)c(=O)n1)c1ccccc1 (configuration not stated) | > 200 µM | 7.59 µM | 
20 | C=CC[C@]1(C(C)Cc2ccc(OC)c(OC)c2)C[C@@H](OC)C=CC1=O (some centres not stated) | > 10 µM | 2.88 µM | 
21 | COC(=O)Cc1cc(=O)n2c([nH]c3ccccc32)c1C#N | > 25.7 µM | > 25.7 µM | 
22 | O=C(NCCO)c1c(O)c2ccccc2[nH]c1=O | > 200 µM | > 200 µM | 
23 | CC1(C)O[C@@H]2[C@@H](COC(=O)c3ccccc3)C[C@@H](C#N)[C@@H]2O1 | > 200 µM | > 200 µM | 
24 | O=C(NCCCCCCCN1CCCCCCC1)C(C1CCCCC1)C1CCCCC1 | > 200 µM | 10.7 µM | 
25 | CCOC(=O)/C(ON)=C(/CC/C(C(=O)OC)=C(\ON)C(=O)OCC)C(=O)OC | 155 µM | 617 µM | 

Row | Structure (SMILES) | EC50 | IC50 | outcome
26 | COc1ccc(-c2nc(SC3OC(COC(C)=O)C(OC(C)=O)C(OC(C)=O)C3OC(C)=O)n(C3OC(COC(C)=O)C(OC(C)=O)C(OC(C)=O)C3OC(C)=O)c(=O)c2C#N)cc1 (configuration not stated) |  | > 100 µM | 
27 | O=c1c2c3c(sc2nc2n1NC=NN2)CCCC3 | > 20 µM | 8.51 µM | 
28 | CCOC(=O)C(=O)Nc1ccccc1OCC | > 209 µM | > 209 µM | 
29 | CN(NC(=O)/C(=C/c1ccc(Cl)cc1)NC(=O)c1ccccc1)c1cn[nH]c(=O)c1Cl | > 200 µM | 6.92 µM | 
30 | Cc1ccc(NC(=O)C(=O)C(C(=O)c2ccc3ccccc3c2)C2OC(=O)c3ccccc32)c(C)c1 (configuration not stated) | > 75.9 µM | 21.4 µM | 
31 | CCN(CC)P1CCP(c2ccccc2)CC1 (configuration not stated) | > 37.2 µM | > 37.2 µM | 
32 | CCc1cccc(C(C)C)c1NC(=O)CC1Sc2ccccc2NC1=O (configuration not stated) | > 97.7 µM | 52.5 µM | 
33 | CCOc1ccc(Nc2nc(N)nc(N)c2N)cc1 | > 200 µM | 66.1 µM | 
34 | CCC(C)SSc1ccccc1C(=O)Nc1ccc(Cl)cc1 (configuration not stated) | > 200 µM | 0.776 µM | 
35 | O=c1[nH]nc(-c2cccc(Br)c2)[nH]1 | > 200 µM | > 200 µM | 
36 | O=C(c1ccccc1)c1oc2ccc(Br)cc2c1-c1cnn(-c2ccccc2)c1 |  |  | inactive
37 | Cc1[nH]n(-c2nc(O)c(-c3ccccc3)c(=O)[nH]2)c(=O)c1CCO | > 200 µM | > 200 µM | 
38 | C=C1C(O)C2(O)OCC34C(CC5C(C)=CC(=O)C(O)C5(C)C23)OC(=O)C(OC(=O)C/C=C(\C)CCCCC)C14 (configuration not stated) | > 47.9 µM | 0.0151 µM | 
39 | O=C(O)c1nc2cc(C(F)(F)F)ccc2[nH]c1=O | > 200 µM | > 200 µM | 
40 | COCCOCCOCCOCCOCCOCCOCCOCCOCCOCCOCCOCCOCCOCCOCCOCCOCC(=O)N(CCn1ccc(NC(c2ccccc2)(c2ccccc2)c2ccccc2)nc1=O)CCn1cnc2nc(NC(=O)c3ccccc3)[nH]c(=O)c21 | > 170 µM | 85.1 µM | 
41 | C[C@@]1(O)C2/C(=N/O)C3CC1(c1ccccc1)CC(/C3=N/O)C2c1ccccc1 (some centres not stated) | > 100 µM | > 100 µM | 
42 | COc1cc(-c2oc3c(OC)cc(OC)c(O)c3c(=O)c2OC)cc(OC)c1OC | > 200 µM | > 200 µM | 
43 | N#CC(C#N)=C1CCCS(=O)(=O)c2ccccc21 | > 200 µM | > 200 µM | 
44 | CCCC(=O)N[C@@H](Cc1cc(I)c(O)c(I)c1)C(=O)NCCCNCCCCNCCCNC(=O)[C@@H](N)CCCN=C(N)N | > 100 µM | 44.7 µM | 
45 | NC(Cc1ccc(OCc2ccccc2)cc1)C(=O)NC(Cc1ccccc1)C(=O)Oc1c(Cl)c(Cl)c(Cl)c(Cl)c1Cl (configuration not stated) | > 200 µM | 28.8 µM | 
46 | O=S(=O)(c1ccccc1)C1CN2OC1(S(=O)(=O)c1ccccc1)CC2c1ccc(Br)cc1 (configuration not stated) |  |  | inactive
47 | Cc1cc(C)nc(NS(=O)(=O)c2ccc(NNc3c4ccccc4nc4c(C(=O)Nc5ccc(S(=O)(=O)Nc6ncccn6)cc5)cccc34)cc2)n1 | > 200 µM | 29.5 µM | 
48 | CCN(CC)/C(Sc1ccccc1)=C(\C(Cl)=C(Cl)Cl)[N+](=O)[O-] | > 200 µM | 12.3 µM | 
49 | Nc1nc2ccc(CO)nc2c(=O)[nH]1 | > 200 µM | > 200 µM | 
50 | CCN(CC)CCN(C)CCc1ccc(Br)cc1 | > 126 µM | 112 µM | 

Row | Structure (SMILES) | EC50 | IC50 | outcome
51 | CC[C@@H]1NC(=O)[C@H]([C@H](O)C(C)C)N(C)C(=O)[C@H](C(C)C)N(C)C(=O)[C@H](CC(C)C)N(C)C(=O)[C@H](CC(C)C)N(C)C(=O)[C@@H](C)NC(=O)[C@H](CCCCNC(=O)COc2ccc(C[C@H](NC(=O)O[C@H]3CCOC3)[C@H](O)CN(CC(C)C)S(=O)(=O)c3ccc(N)cc3)cc2)NC(=O)[C@H](CC(C)C)N(C)C(=O)[C@H](C(C)C)NC(=O)[C@H](CC(C)C)N(C)C(=O)[C@@H](CO)N(C)C1=O (cyclo([NMeLeu(3R-OH)][Abu][dNMeS][NMeL]V[NMeL]K(X10)[dA][NMeL][NMeL][NMeV])) | 0.0501 µM | 42.7 µM | 
52 | O=C(/C=C/c1ccc(OCCCOc2ccc(/C=C/C(=O)c3ccc(Cl)cc3)cc2)cc1)c1ccc(Cl)cc1 | > 12.9 µM | > 12.9 µM | 
53 | CCC12C=CCN(C1)C(=O)Cc1c([nH]c3ccccc13)/C(=N/NC(=O)OC)C2 (configuration not stated) | > 52.5 µM | > 52.5 µM | 
54 | COc1ccc2nc(/N=C/N(C)C)sc2c1 | > 200 µM | > 200 µM | 
55 | O=[N+]([O-])c1ccc(-n2nnc(C3=NCCN3)c2-c2ccccc2)cc1 | > 30.2 µM | > 30.2 µM | 
56 | COc1ccc(N=Nc2c(C)c(C#N)c(=S)n(C3OC(COC(C)=O)C(OC(C)=O)C(OC(C)=O)C3OC(C)=O)c2-c2ccccc2)cc1 (configuration not stated) | > 200 µM | 126 µM | 
57 | CC(C)(C)OC(=O)NCCNC(=O)CN(CC(=O)O)C1CCCCC1N(CC(=O)O)CC(=O)O (configuration not stated) | > 200 µM | 170 µM | 
58 | Cn1cc(NC(=O)Nc2cc(C(=O)Nc3cc(C(=O)Nc4ccc5cc(S(=O)(=O)O)cc(S(=O)(=O)O)c5c4)n(C)c3)n(C)c2)cc1C(=O)Nc1cc(C(=O)Nc2ccc3cc(S(=O)(=O)O)cc(S(=O)(=O)O)c3c2)n(C)c1 | 33.9 µM | > 100 µM | 
59 | CC1CCN(CCCCCNC(=O)C(c2ccccc2)C2CCCCC2)CC(C)(C)C1 (configuration not stated) | > 100 µM | 41.7 µM | 
60 | O=S(O)CCCCCSSSCCCCCS(=O)O |  |  | inactive
61 | Cc1ccc(-c2c3nc(c(-c4ccc(C)cc4)c4ccc([nH]4)c(-c4ccc(C)cc4)c4nc(c(-c5ccncc5)c5ccc2[nH]5)C=C4)C=C3)cc1.Cc1ccc(-c2c3nc(c(-c4ccc(C)cc4)c4ccc([nH]4)c(-c4ccc(C)cc4)c4nc(c(-c5ccncc5)c5ccc2[nH]5)C=C4)C=C3)cc1.O=S(=O)([O-])C(F)(F)F.[Pt+2].c1ccc([PH+](CCC[PH+](c2ccccc2)c2ccccc2)c2ccccc2)cc1 |  |  | inactive
62 | CC(Cc1ccccc1)Nc1ncnc2c1ncn2C1OC(CO)CC1O (configuration not stated) |  |  | inactive
63 | CN1c2ccccc2Sc2c1n[nH]c2-c1ccccc1 | > 49 µM | 20.9 µM | 
64 | Cc1ccc(-c2c(C#N)c(S)n(NS(=O)(=O)c3ccc(C)cc3)c(=O)c2C#N)cc1 | > 200 µM | 11.7 µM | 
65 | CC1=C[C@H](C[C@]2(C)c3c(c4c(C)cccc4oc3=O)O[C@@H]2C)OC1=O | > 200 µM | 26.9 µM | 
66 | CCCCCCNC(=O)Sc1ccccc1C(=O)N[C@H](C)C(N)=O | 0.141 µM | 107 µM | 
67 | N#Cc1c(N)nc(-c2ccc(Cl)cc2)c2c1-c1ccccc1S(=O)(=O)CC2 | > 100 µM | > 100 µM | 
68 | CCCCCCCCCCCCCCCCC(=O)NCC(=O)NCC(=O)NC(Cc1ccccc1)C(=O)Oc1ccc([N+](=O)[O-])cc1 (configuration not stated) | > 200 µM | 18.2 µM | 
69 | O=C(c1ccccc1)C1C(c2ccccc2)SC(c2ccccc2)CC1(O)c1ccccc1 (configuration not stated) | > 151 µM | 20.9 µM | 
70 | Cc1ccc(N(C(=O)CC(=O)NN)C(=O)c2ccccc2Cl)cc1 | > 269 µM | > 269 µM | 
71 | NCCN=C(Nc1ccccc1)Nc1ccccc1 | > 200 µM | 29.5 µM | 
72 | COc1ccc(OC)c(N=Nc2c(O)c3ccccc3[nH]c2=O)c1 | 47.9 µM | > 200 µM | 
73 | Cc1cn(C2CC(N=[N+]=[N-])C(COC(=O)[C@@]3(O)CC[C@H]4[C@@H]5CCC6=CC(=O)CC[C@]6(C)[C@H]5C(O)C[C@@]43C)O2)c(=O)[nH]c1=O (some centres not stated) | 26.9 µM | 158 µM | 
74 | CCSC1=N/C(=C/c2ccccc2O)C(=O)N1 | > 200 µM | 123 µM | 
75 | CCN(CC)c1cc(OCc2ccccc2)cc2c1[C@H]1COc3cc(OC)ccc3[C@H]1O2 |  |  | inactive
